Measurements from patent US9102701B2, “17-hydroxy-17-pentafluoroethyl-estra-4,9(10)-diene-11-ethynylphenyl derivatives, methods for the production thereof and use thereof for treating diseases” (Bayer Intellectual Property GmbH, priority 2009, dated 2015).
Values after ≈ are worked out from the molar mass of the structure shown. Where two headings read alike, the source gives them in different places.

Key:
[1] = Metabolic stability in human liver microsomes; type: in vitro ADME; conditions: for Predicted Fmax (maximum oral bioavailability) Human: calculated from liver microsome data; for Predicted clearance Human: predicted in vivo clearance from liver microsomes, well-stirred model, 1 μM
Method: Determination of Metabolic Stability in Human and Rat Liver Microsomes
Isolated Human Liver Microsomes (HLM) were Used to Assess the Metabolic Stability of compounds of general formula I.
The incubations were conducted with 2.4 ml of HLM solution (protein content 0.5 mg/ml), 30 μl of the test compound (final concentration 1 μM) and 0.6 ml of the cofactor mixture (═NADPH-generating system composed of 3 IU glucose-6-phosphate dehydrogenase, 14.6 mg glucose-6-phosphate, 1.2 mg NADP) at 37° C. in 100 mM phosphate buffer at pH 7.4. Samples were taken at 6 time points (2-60 min) and precipitated with an equal volume of methanol, and the recovery of the test substances used in the supernatant was determined by LC-MS/MS analysis. The half-life of substance degradation determined therefrom was used to calculate what is called the intrinsic clearance of the substance in the liver microsome preparation.

[2] = Solubility in aqueous medium at pH 7.4; type: physicochemical; conditions: aqueous medium, pH 7.4, aqueous buffer
[3] = biological target: T1, human progesterone receptor B (Homo sapiens, UniProt P06401); experiment: Progesterone receptor-antagonistic action in stably transfected SK-N-MC cells, PR-B, MMTV-LUC reporter; type: cell-based
T1 construct: expressed in transfected cells; host or cells: SK-N-MC human neuroblastoma cells, stably transfected with pRChPR-B-neo and pMMTV-LUC
T1 sequence (P06401 1-933): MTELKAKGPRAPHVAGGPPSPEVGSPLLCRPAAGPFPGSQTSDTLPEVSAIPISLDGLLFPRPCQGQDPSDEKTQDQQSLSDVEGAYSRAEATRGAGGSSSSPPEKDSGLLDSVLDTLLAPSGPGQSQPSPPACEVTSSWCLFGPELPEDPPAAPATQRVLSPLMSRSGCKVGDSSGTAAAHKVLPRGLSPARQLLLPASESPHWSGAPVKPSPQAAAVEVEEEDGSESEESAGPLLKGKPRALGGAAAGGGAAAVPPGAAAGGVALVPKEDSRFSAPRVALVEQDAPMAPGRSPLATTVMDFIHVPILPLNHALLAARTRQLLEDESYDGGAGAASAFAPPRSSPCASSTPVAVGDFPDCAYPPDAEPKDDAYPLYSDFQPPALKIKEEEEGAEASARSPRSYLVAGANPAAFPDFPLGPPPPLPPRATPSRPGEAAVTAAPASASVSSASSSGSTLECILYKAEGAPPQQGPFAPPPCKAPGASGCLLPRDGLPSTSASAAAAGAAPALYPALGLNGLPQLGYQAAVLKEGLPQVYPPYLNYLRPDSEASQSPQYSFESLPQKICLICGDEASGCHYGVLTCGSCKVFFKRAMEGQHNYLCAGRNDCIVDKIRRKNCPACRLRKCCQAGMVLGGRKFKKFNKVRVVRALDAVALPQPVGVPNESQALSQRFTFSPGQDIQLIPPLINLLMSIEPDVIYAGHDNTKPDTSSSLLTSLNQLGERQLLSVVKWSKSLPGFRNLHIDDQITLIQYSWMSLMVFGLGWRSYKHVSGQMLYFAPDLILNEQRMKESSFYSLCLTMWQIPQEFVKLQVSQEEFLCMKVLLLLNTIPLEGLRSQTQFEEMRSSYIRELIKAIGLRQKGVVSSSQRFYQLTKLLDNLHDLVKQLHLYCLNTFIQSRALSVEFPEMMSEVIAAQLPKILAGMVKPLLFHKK
In short: (§1)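 SK-N-MC neuroblastoma cells stably expressing human PR-A or PR-B plus MMTV-LUC reporter, treated 24 h with compound (0.01 nmol/l upward). Antagonism measured against 0.1 nmol/l promegestone; luciferase in lysates as RLU, given as % efficacy and IC50 (agonism as EC50).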

[4] = biological target: T2, human progesterone receptor A (Homo sapiens, UniProt P06401); experiment: Progesterone receptor-antagonistic action in stably transfected SK-N-MC cells, PR-A, MMTV-LUC reporter; type: cell-based
T2 construct: expressed in transfected cells; host or cells: SK-N-MC human neuroblastoma cells, stably transfected with pRChPR-A-neo and pMMTV-LUC
T2 sequence (P06401 1-769 isoform P06401-2): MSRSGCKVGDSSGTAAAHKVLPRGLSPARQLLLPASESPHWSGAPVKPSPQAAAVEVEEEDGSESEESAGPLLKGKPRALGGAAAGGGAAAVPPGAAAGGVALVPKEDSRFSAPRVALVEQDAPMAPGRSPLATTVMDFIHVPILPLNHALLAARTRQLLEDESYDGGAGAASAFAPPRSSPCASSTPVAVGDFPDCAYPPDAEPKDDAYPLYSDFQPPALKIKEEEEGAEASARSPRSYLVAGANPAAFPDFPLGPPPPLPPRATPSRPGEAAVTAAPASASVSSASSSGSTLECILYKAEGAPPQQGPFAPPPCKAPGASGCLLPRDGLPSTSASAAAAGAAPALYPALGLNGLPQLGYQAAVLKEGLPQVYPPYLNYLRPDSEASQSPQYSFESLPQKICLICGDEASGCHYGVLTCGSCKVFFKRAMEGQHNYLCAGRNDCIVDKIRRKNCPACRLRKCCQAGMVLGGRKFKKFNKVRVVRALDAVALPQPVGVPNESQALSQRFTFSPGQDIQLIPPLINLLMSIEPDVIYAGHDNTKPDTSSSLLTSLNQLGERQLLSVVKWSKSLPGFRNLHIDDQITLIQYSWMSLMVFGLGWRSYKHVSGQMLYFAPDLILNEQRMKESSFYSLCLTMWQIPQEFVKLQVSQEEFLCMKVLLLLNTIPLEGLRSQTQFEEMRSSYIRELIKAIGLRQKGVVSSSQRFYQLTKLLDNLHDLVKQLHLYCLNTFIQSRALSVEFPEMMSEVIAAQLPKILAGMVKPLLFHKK
In short: as §1

SMILES: CCNC(=O)NCC#Cc1ccc([C@H]2C[C@@]3(C)C(CC[C@@]3(O)C(F)(F)C(F)(F)F)C3CCC4=CC(=O)CCC4=C32)cc1 (stereo partly drawn) [Example 31, 1-ethyl-3-{3-[4-((8S,11R,13S,14S,17S)-17-hydroxy-13-methyl-3-oxo-17-pentafluoroethyl-2,3,6,7,8,11,12,13,14,15,16,17-dodecahydro-1H-cyclopenta[a]phenanthren-1′-yl)phenyl]prop-2-ynyl}urea]
- Predicted Fmax (maximum oral bioavailability) Human [1]: 15%
- Predicted clearance Human [1]: 18.8 mL/min/kg
- solubility [2]: 10 µg/mL (≈ 16.9 µM)
- IC50 ([3]; read-out: IC50 PR-B): 0.1 nM
- IC50 ([4]; read-out: IC50 PR-A): 0.08 nM

SMILES: CCO/N=C/C#Cc1ccc([C@H]2C[C@@]3(C)[C@@H](CC[C@@]3(O)C(F)(F)C(F)(F)F)[C@@H]3CCC4=CC(=O)CCC4=C32)cc1 [Example 25A, (E)-[4-((8S,11R,13S,14S,17S)-17-hydroxy-13-methyl-3-oxo-17-pentafluoroethyl-2,3,6,7,8,11,12,13,14,15,16,17-dodecahydro-1H-cyclopenta[a]phenanthren-1′-yl)phenyl]propynal O-ethyl oxime]
- Predicted Fmax (maximum oral bioavailability) Human [1]: 47%
- Predicted clearance Human [1]: 11.7 mL/min/kg
- solubility [2]: 5 µg/mL (≈ 8.9 µM)
- IC50 ([3]; read-out: IC50 PR-B): 0.08 nM
- IC50 ([4]; read-out: IC50 PR-A): 0.01 nM

SMILES: C[C@]12C[C@H](c3ccc(C#CCOCC#N)cc3)C3=C4CCC(=O)C=C4CCC3C1CC[C@@]2(O)C(F)(F)C(F)(F)F (stereo partly drawn) [Example 14, {3-[4-((8S,11R,13S,14S,17S)-17-hydroxy-13-methyl-3-oxo-17-pentafluoroethyl-2,3,6,7,8,11,12,13,14,15,16,17-dodecahydro-1H-cyclopenta[a]phenanthren-1′-yl)phenyl]prop-2-ynyloxy}acetonitrile]
- IC50 ([3]; read-out: IC50 PR-B): 0.1 nM
- IC50 ([4]; read-out: IC50 PR-A): 0.1 nM

SMILES: C[C@]12C[C@H](c3ccc(C#CCNC(=O)Nc4ccc(Cl)cc4)cc3)C3=C4CCC(=O)C=C4CC[C@H]3[C@@H]1CC[C@@]2(O)C(F)(F)C(F)(F)F [Example 35, 1-{3-[4-((8S,11R,13S,14S,17S)-17-hydroxy-13-methyl-3-oxo-17-pentafluoroethyl-2,3,6,7,8,11,12,13,14,15,16,17-dodecahydro-1H-cyclopenta[a]phenanthren-11-yl)phenyl]prop-2-ynyl}-3-(4-chlorophenyl)urea]
- IC50 ([3]; read-out: IC50 PR-B): 0.4 nM
- IC50 ([4]; read-out: IC50 PR-A): 0.4 nM

SMILES: C[C@]12C[C@H](c3ccc(C#CCOCc4nnn[nH]4)cc3)C3=C4CCC(=O)C=C4CC[C@H]3[C@@H]1CC[C@@]2(O)C(F)(F)C(F)(F)F [Example 18, (8S,11R,13S,14S,17S)-17-hydroxy-13-methyl-17-pentafluoroethyl-11-{4-[3-(1H-tetrazol-5-ylmethoxy)prop-1-yn-1-yl]phenyl}-1,2,6,7,8,11,12,13,14,15,16,17-dodecahydrocyclopenta[a]phenanthren-3-one]
- IC50 ([3]; read-out: IC50 PR-B): 5 nM
- IC50 ([4]; read-out: IC50 PR-A): 8 nM

SMILES: CC(C)NC(=O)NCC#Cc1ccc([C@H]2C[C@@]3(C)[C@@H](CC[C@@]3(O)C(F)(F)C(F)(F)F)[C@@H]3CCC4=CC(=O)CCC4=C32)cc1 [Example 29, 1-{3-[4-((8S,11R,13S,14S,17S)-17-hydroxy-13-methyl-3-oxo-17-pentafluoroethyl-2,3,6,7,8,11,12,13,14,15,16,17-dodecahydro-1H-cyclopenta[a]phenanthren-11-yl)phenyl]prop-2-ynyl}-3-isopropylurea]
- IC50 ([3]; read-out: IC50 PR-B): 0.1 nM
- IC50 ([4]; read-out: IC50 PR-A): 0.1 nM

SMILES: C[C@]12C[C@H](c3ccc(C#C/C=N\OCc4ccccc4)cc3)C3=C4CCC(=O)C=C4CCC3C1CC[C@@]2(O)C(F)(F)C(F)(F)F (stereo partly drawn) [Example 24B, (Z)-[4-((8S,11R,13S,14S,17S)-17-hydroxy-13-methyl-3-oxo-17-pentafluoroethyl-2,3,6,7,8,11,12,13,14,15,16,17-dodecahydro-1H-cyclopenta[a]phenanthren-1′-yl)phenyl]propynal O-benzyl oxime]
- IC50 ([3]; read-out: IC50 PR-B): 0.1 nM
- IC50 ([4]; read-out: IC50 PR-A): 0.1 nM

SMILES: Cc1ccc(NC(=O)NCC#Cc2ccc([C@H]3C[C@@]4(C)[C@@H](CC[C@@]4(O)C(F)(F)C(F)(F)F)[C@@H]4CCC5=CC(=O)CCC5=C43)cc2)cc1 [Example 38, 1-{3-[4-((8S,11R,13S,14S,17S)-17-hydroxy-13-methyl-3-oxo-17-pentafluoroethyl-2,3,6,7,8,11,12,13,14,15,16,17-dodecahydro-1H-cyclopenta[a]phenanthren-11-yl)phenyl]prop-2-ynyl}-3-(4-methylphenyl)urea]
- IC50 ([3]; read-out: IC50 PR-B): 0.3 nM
- IC50 ([4]; read-out: IC50 PR-A): 0.2 nM

SMILES: COC(=O)C#Cc1ccc([C@H]2C[C@@]3(C)C(CC[C@@]3(O)C(F)(F)C(F)(F)F)C3CCC4=CC(=O)CCC4=C32)cc1 (stereo partly drawn) [Example 3, [4-((8S,11R,13S,14S,17S)-17-hydroxy-13-methyl-3-oxo-17-pentafluoroethyl-2,3,6,7,8,11,12,13,14,15,16,17-dodecahydro-1H-cyclopenta[a]phenanthren-1′-yl)phenyl]propynoic acid methyl ester]
- IC50 [3]: 1.2 nM
- IC50 [4]: 1.8 nM

SMILES: C[C@]12C[C@H](c3ccc(C#CC=NOCc4ccc(Cl)c(Cl)c4)cc3)C3=C4CCC(=O)C=C4CCC3C1CC[C@@]2(O)C(F)(F)C(F)(F)F (mixture of isomers) [Example 27, (E/Z)-[4-((8S,11R,13S,14S,17S)-17-hydroxy-13-methyl-3-oxo-17-pentafluoroethyl-2,3,6,7,8,11,12,13,14,15,16,17-dodecahydro-1H-cyclopenta[a]phenanthren-1′-yl)phenyl]propynal O-(3,4-dichlorobenzyl) oxime]
- IC50 ([3]; read-out: IC50 PR-B): 2 nM
- IC50 ([4]; read-out: IC50 PR-A): 0.97 nM

SMILES: C[C@]12C[C@H](c3ccc(C#CCOC(=O)Nc4ccc(Cl)cc4)cc3)C3=C4CCC(=O)C=C4CCC3C1CC[C@@]2(O)C(F)(F)C(F)(F)F (stereo partly drawn) [Example 55, 4-chlorophenylcarbamic acid 3-[4-((8S,11R,13S,14S,17S)-17-hydroxy-13-methyl-3-oxo-17-pentafluoroethyl-2,3,6,7,8,11,12,13,14,15,16,17-dodecahydro-1H-cyclopenta[a]phenanthren-1′-yl)phenyl]prop-2-ynyl ester]
- IC50 ([3]; read-out: IC50 PR-B): 0.2 nM
- IC50 ([4]; read-out: IC50 PR-A): 0.26 nM

SMILES: C=CCNC(=O)NCC#Cc1ccc([C@H]2C[C@@]3(C)[C@@H](CC[C@@]3(O)C(F)(F)C(F)(F)F)[C@@H]3CCC4=CC(=O)CCC4=C32)cc1 [Example 41, 1-allyl-3-{3-[4-((8S,11R,13S,14S,17S)-17-hydroxy-13-methyl-3-oxo-17-pentafluoroethyl-2,3,6,7,8,11,12,13,14,15,16,17-dodecahydro-1H-cyclopenta[a]phenanthren-1′-yl)phenyl]prop-2-ynyl}urea]
- IC50 ([3]; read-out: IC50 PR-B): 0.1 nM
- IC50 ([4]; read-out: IC50 PR-A): 0.1 nM
